Test systems include UACC-62 melanoma; XF 498 CNS; K-562 leukemia; M19-MEL melanoma; DLD-1 colon; DMS 114 small cell lung; MOLT-4 leukemia; SK-MEL-28 melanoma; KM20L2 colon; UO-31 renal; ACHN renal; LXFL 529 NSCLC; HL-60(TB) leukemia; SNB-78 CNS; HOP-18 NSCLC; RPMI-8226 leukemia; CAKI-1 renal; SN12C renal; OVCAR-5 ovarian.
Common to all, as to test: growth of human tumour cells (NCI), 48 h

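Following 48 hours of exposure in 96-well plates, responses at five concentrations were used to interpolate endpoints linearly. Definition used: TGI = concentration required for complete inhibition of growth.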

Consider `COc1ccc(C(c2ccccc2)(c2ccc(OC)cc2)N2C(=O)NC3C(CCCCC(=O)NCCCCCCOP(OCCC#N)N(C(C)C)C(C)C)SCC32)cc1` (centres undefined), for which the TGI with UACC-62 melanoma came out at 27.4 µM; in the experiment with XF 498 CNS it was 30.8 µM; in the experiment with K-562 leukemia, 32.2 µM; with M19-MEL melanoma it was 33.1 µM; in the experiment on DLD-1 colon it was 29.4 µM; in the experiment on DMS 114 small cell lung, 36.8 µM. Further, the TGI was determined as 28.5 µM with MOLT-4 leukemia; 29 µM in the experiment with SK-MEL-28 melanoma; 30.8 µM in the experiment on KM20L2 colon; 27.5 µM in the experiment on UO-31 renal; 29.9 µM in the experiment with ACHN renal; 25.2 µM with LXFL 529 NSCLC. The TGI with HL-60(TB) leukemia amounted to 32.1 µM; in the experiment on SNB-78 CNS, 34.6 µM; with HOP-18 NSCLC, 24.4 µM.
For the molecule `COc1cccc2c1c1ccc3c(c1n2C)C(=O)C=CC3=O`, the TGI was 31.2 µM with UACC-62 melanoma; 29.4 µM in the experiment with XF 498 CNS; over 100 µM in the experiment with K-562 leukemia; 11.6 µM in the experiment with RPMI-8226 leukemia; 2.52 µM in the experiment with M19-MEL melanoma; 31.2 µM in the experiment with DLD-1 colon. For the same molecule, the TGI was 43.4 µM with DMS 114 small cell lung; 11.6 µM in the experiment on CAKI-1 renal; 8.65 µM in the experiment with MOLT-4 leukemia; 33.4 µM with SK-MEL-28 melanoma; over 100 µM in the experiment on KM20L2 colon; 41.5 µM in the experiment with SN12C renal. Further, the TGI in the experiment with OVCAR-5 ovarian was over 100 µM; with UO-31 renal it was 44.2 µM; in the experiment with ACHN renal, 28.6 µM; in the experiment with LXFL 529 NSCLC, 24.4 µM; in the experiment with HL-60(TB) leukemia, over 100 µM; in the experiment with SNB-78 CNS, 42.5 µM. The TGI with HOP-18 NSCLC stood at 29 µM.

Source of the values: PubChem BioAssay (NCI).
